Data: US9249208B2, “Citrulline peptides derived from fibrin and recognized by rheumatoid arthritis specific autoantibodies, and the use thereof” (Biomerieux, priority 2004, dated 2016)
Where no end group is shown, it is not given here. [ ]: non-standard residue; d: D form. Cit = NC(=O)NCCC[C@H](N)C(=O)O

Legend:
[1] = system: anti-citrullinated protein autoantibodies (ACPAs); test: ELISA of citrullinated/native fibrin peptide pairs with serum mixtures A and B and control mixture (delta OD); type: binding, human; details: mean of two determinations
Method: Each pair of peptides (citrullinated and noncitrullinated) was assayed by ELISA with a mixture, in equal parts, of 10 sera having no ACPAs (control mixture) and with the 2 mixtures A and B described in Example 1.
Each pair of peptides (native and citrullinated form) was tested on the same plate and a pair of control peptides—citrullinated “filaggrin” peptide cfc6 and its corresponding native peptide cf0 (Schellekens G A, 1998, mentioned above)—was included in each experiment, which made it possible to calculate an inter-assay coefficient of variation and to perform corrections.
All the incubations were carried out for 1 h at 4° C. and were followed by washing in PBS-0.1% Tween. The peroxidase activity was visualized with a solution of ortho-phenylenediamine (2 mg/ml—Sigma) in hydrogen peroxide (0.03%—Sigma). The reaction was stopped after 5 minutes by adding 4M sulfuric acid, and the optical density (OD) at 492 nm was measured by virtue of an automatic spectrophotometer (Multiskan, Thermo Labsystems).
The specific reactivity of the mixtures of sera with regard to the citrullinated peptides corresponded to the difference between the OD obtained with the citrullinated peptide and that obtained with the corresponding native peptide (delta OD). The results correspond to the mean of two determinations. Any citrullinated peptide making it possible to obtain a delta OD of greater than 0.250 for at least one of the two mixtures A and B after coating in at least one of the three buffers, was considered to be reactive.

[2] = system: anti-citrullinated protein autoantibodies (ACPAs); test: ELISA of reactive citrullinated fibrin peptides with the 20 individual sera of mixtures A and B; type: binding, human; details: for Number of positive sera: sera with delta OD not <0.25 out of sera tested (20, or 10 of mixture A only); for delta OD: best coating buffer per peptide
Method: The 14 peptides carrying the most reactive epitopes (delta OD≧0.5 for one or other of the mixtures of serum (A and B) with at least one of the three coating buffers) were tested independently with the 20 sera constituting the mixtures A and B, in order to evaluate the reactivity profile of each of these peptides. The tests were carried out by ELISA under the same conditions as in Example 2 above, with the exception that, for each pair of peptides, the coating buffer selected was that that had made it possible to obtain the strongest reactivity with respect to this peptide during the screening (the buffer for which the sum of the delta ODs obtained respectively for the serum mixtures A and B was at a maximum). […] Thus, for each serum, the dilution that made it possible to obtain an OD of 1 by ELISA on deiminated fibrinogen was selected (Nogueira L, 2002, mentioned above). The dilutions ranged from 1/20 to 1/2700.

[3] = Mixture A of sera 1/50, coating buffer PBS pH 7.4
[4] = Mixture A of sera 1/50, coating buffer acetate pH 5.0
[5] = Mixture A of sera 1/50, coating buffer carbonate pH 9.0
[6] = Mixture B of sera 1/50, coating buffer PBS pH 7.4
[7] = Mixture B of sera 1/50, coating buffer acetate pH 5.0
[8] = Mixture B of sera 1/50, coating buffer carbonate pH 9.0

Substance: α36-50Cit38,42: citrullinated synthetic peptide, fibrin α-chain residues 36-50; fits SEQ ID NO: 2 GPX1VVEX2HQSACKDS (GP[Cit]VVE[Cit]HQSACKDS)
- delta OD (citrullinated minus native peptide, 492 nm) [1, 3]: 2.69
- delta OD (citrullinated minus native peptide, 492 nm) [1, 4]: 4.00
- delta OD (citrullinated minus native peptide, 492 nm) [1, 5]: 3.43
- delta OD (citrullinated minus native peptide, 492 nm) [1, 6]: 2.65
- delta OD (citrullinated minus native peptide, 492 nm) [1, 7]: 4.27
- delta OD (citrullinated minus native peptide, 492 nm) [1, 8]: 2.64
- Number of positive sera [2]: 12/20
- delta OD ([2]; serum 95.0256, dilution 1/35): 2.35
- delta OD ([2]; serum 97.0311, dilution 1/200): 0.71
- delta OD ([2]; serum 97.0323, dilution 1/120): 1.87
- delta OD ([2]; serum 97.0388, dilution 1/50): 3.32
- delta OD ([2]; serum 97.0459, dilution 1/60): 3.55
- delta OD ([2]; serum 97.0524, dilution 1/200): 3.39
- delta OD ([2]; serum 97.0530, dilution 1/50): 2.97
- delta OD ([2]; serum 97.0794, dilution 1/50): 3.43
- delta OD ([2]; serum 97.1436, dilution 1/150): 3.30
- delta OD ([2]; serum 97.1474, dilution 1/20): 1.93
- delta OD ([2]; serum 97.1715, dilution 1/300): 3.50
- delta OD ([2]; serum 97.1795, dilution 1/50): 2.29

Substance: α366-380Cit367: citrullinated synthetic peptide, fibrin α-chain residues 366-380 (E[Cit]GSAGHWTSESSVS)
- delta OD (citrullinated minus native peptide, 492 nm) [1, 3]: 0.37
- delta OD (citrullinated minus native peptide, 492 nm) [1, 4]: 0.28
- delta OD (citrullinated minus native peptide, 492 nm) [1, 5]: 0.26
- delta OD (citrullinated minus native peptide, 492 nm) [1, 6]: 0.04
- delta OD (citrullinated minus native peptide, 492 nm) [1, 7]: 0.00
- delta OD (citrullinated minus native peptide, 492 nm) [1, 8]: 0.08

Substance: α396-410Cit404: citrullinated synthetic peptide, fibrin α-chain residues 396-410 (DSPGSGNA[Cit]PNNPDW)
- delta OD (citrullinated minus native peptide, 492 nm) [1, 3]: 0.02
- delta OD (citrullinated minus native peptide, 492 nm) [1, 4]: 0.04
- delta OD (citrullinated minus native peptide, 492 nm) [1, 5]: 0.43
- delta OD (citrullinated minus native peptide, 492 nm) [1, 6]: 0.17
- delta OD (citrullinated minus native peptide, 492 nm) [1, 7]: 0.15
- delta OD (citrullinated minus native peptide, 492 nm) [1, 8]: 0.20

Substance: α411-425Cit425: citrullinated synthetic peptide, fibrin α-chain residues 411-425 (GTFEEVSGNVSPGT[Cit])
- delta OD (citrullinated minus native peptide, 492 nm) [1, 3]: 0.16
- delta OD (citrullinated minus native peptide, 492 nm) [1, 4]: 0.09
- delta OD (citrullinated minus native peptide, 492 nm) [1, 5]: 0.56
- delta OD (citrullinated minus native peptide, 492 nm) [1, 6]: 0.66
- delta OD (citrullinated minus native peptide, 492 nm) [1, 7]: 0.38
- delta OD (citrullinated minus native peptide, 492 nm) [1, 8]: 0.43
- Number of positive sera [2]: 1/20
- delta OD ([2]; serum 97.1210, dilution 1/300): 0.84

Substance: α171-185Cit178,181: citrullinated synthetic peptide, fibrin α-chain residues 171-185; fits SEQ ID NO: 4 VDIDIKIX1SCX2GSCS (VDIDIKI[Cit]SC[Cit]GSCS; cysteine pairing not given here)
- delta OD (citrullinated minus native peptide, 492 nm) [1, 3]: 0.29
- delta OD (citrullinated minus native peptide, 492 nm) [1, 4]: 0.15
- delta OD (citrullinated minus native peptide, 492 nm) [1, 5]: 0.75
- delta OD (citrullinated minus native peptide, 492 nm) [1, 6]: 0.21
- delta OD (citrullinated minus native peptide, 492 nm) [1, 7]: 0.08
- delta OD (citrullinated minus native peptide, 492 nm) [1, 8]: 0.47
- Number of positive sera [2]: 9/20
- delta OD ([2]; serum 97.0311, dilution 1/200): 1.95
- delta OD ([2]; serum 97.0459, dilution 1/60): 0.29
- delta OD ([2]; serum 97.0468, dilution 1/700): 0.42
- delta OD ([2]; serum 97.0524, dilution 1/200): 0.59
- delta OD ([2]; serum 97.0794, dilution 1/50): 2.09
- delta OD ([2]; serum 97.0907, dilution 1/300): 0.44
- delta OD ([2]; serum 97.1474, dilution 1/20): 1.08
- delta OD ([2]; serum 97.1548, dilution 1/60): 0.71
- delta OD ([2]; serum 97.1795, dilution 1/50): 0.57

Substance: β210-224Cit224: citrullinated synthetic peptide, fibrin β-chain residues 210-224 (QKLESDVSAQMEYC[Cit])
- delta OD (citrullinated minus native peptide, 492 nm) [1, 3]: 0.29
- delta OD (citrullinated minus native peptide, 492 nm) [1, 4]: 0.25
- delta OD (citrullinated minus native peptide, 492 nm) [1, 5]: 1.14
- delta OD (citrullinated minus native peptide, 492 nm) [1, 6]: 0.60
- delta OD (citrullinated minus native peptide, 492 nm) [1, 7]: 0.00
- delta OD (citrullinated minus native peptide, 492 nm) [1, 8]: 1.56
- Number of positive sera [2]: 6/20
- delta OD ([2]; serum 97.0311, dilution 1/200): 0.46
- delta OD ([2]; serum 97.0323, dilution 1/120): 0.36
- delta OD ([2]; serum 97.0796, dilution 1/500): 0.67
- delta OD ([2]; serum 97.0907, dilution 1/300): 0.33
- delta OD ([2]; serum 97.1210, dilution 1/300): 0.72
- delta OD ([2]; serum 97.1795, dilution 1/50): 0.49

Substance: α621-635Cit621,627,630: citrullinated synthetic peptide, fibrin α-chain residues 621-635; fits SEQ ID NO: 12 X1GHAKSX2PVX3GIHTS ([Cit]GHAKS[Cit]PV[Cit]GIHTS)
- delta OD (citrullinated minus native peptide, 492 nm) [1, 3]: 1.57
- delta OD (citrullinated minus native peptide, 492 nm) [1, 4]: 0.25
- delta OD (citrullinated minus native peptide, 492 nm) [1, 5]: 1.17
- delta OD (citrullinated minus native peptide, 492 nm) [1, 6]: 1.51
- delta OD (citrullinated minus native peptide, 492 nm) [1, 7]: 0.18
- delta OD (citrullinated minus native peptide, 492 nm) [1, 8]: 1.20
- Number of positive sera [2]: 10/20
- delta OD ([2]; serum 97.0169, dilution 1/400): 0.80
- delta OD ([2]; serum 97.0244, dilution 1/2700): 0.50
- delta OD ([2]; serum 97.0311, dilution 1/200): 0.37
- delta OD ([2]; serum 97.0388, dilution 1/50): 2.71
- delta OD ([2]; serum 97.0468, dilution 1/700): 0.81
- delta OD ([2]; serum 97.0796, dilution 1/500): 0.69
- delta OD ([2]; serum 97.0907, dilution 1/300): 1.04
- delta OD ([2]; serum 97.1210, dilution 1/300): 0.37
- delta OD ([2]; serum 97.1474, dilution 1/20): 0.59
- delta OD ([2]; serum 97.1548, dilution 1/60): 3.29

Substance: β433-447Cit436,445: citrullinated synthetic peptide, fibrin β-chain residues 433-447 (second series) (WYN[Cit]CHAANPNG[Cit]YY)
- delta OD (citrullinated minus native peptide, 492 nm) [1, 3]: 0.58
- delta OD (citrullinated minus native peptide, 492 nm) [1, 4]: 0.41
- delta OD (citrullinated minus native peptide, 492 nm) [1, 5]: 0.67
- delta OD (citrullinated minus native peptide, 492 nm) [1, 6]: 0.00
- delta OD (citrullinated minus native peptide, 492 nm) [1, 7]: 0.00
- delta OD (citrullinated minus native peptide, 492 nm) [1, 8]: 0.03
- Number of positive sera [2]: 2/10
- delta OD ([2]; serum 97.0388, dilution 1/50): 1.14
- delta OD ([2]; serum 97.0796, dilution 1/500): 0.71

Substance: β281-295Cit285,294: citrullinated synthetic peptide, fibrin β-chain residues 281-295 (second series) (VIQN[Cit]QDGSVDFG[Cit]K)
- delta OD (citrullinated minus native peptide, 492 nm) [1, 3]: 0.60
- delta OD (citrullinated minus native peptide, 492 nm) [1, 4]: 0.12
- delta OD (citrullinated minus native peptide, 492 nm) [1, 5]: 0.61
- delta OD (citrullinated minus native peptide, 492 nm) [1, 6]: 0.75
- delta OD (citrullinated minus native peptide, 492 nm) [1, 7]: 0.11
- delta OD (citrullinated minus native peptide, 492 nm) [1, 8]: 0.71
- Number of positive sera [2]: 6/20
- delta OD ([2]; serum 97.0323, dilution 1/120): 1.16
- delta OD ([2]; serum 97.0459, dilution 1/60): 2.22
- delta OD ([2]; serum 97.0506, dilution 1/75): 1.80
- delta OD ([2]; serum 97.0524, dilution 1/200): 0.25
- delta OD ([2]; serum 97.0794, dilution 1/50): 0.26
- delta OD ([2]; serum 97.1474, dilution 1/20): 0.36

Substance: α546-560Cit547: citrullinated synthetic peptide, fibrin α-chain residues 546-560 (S[Cit]GSESGIFTNTKES)
- delta OD (citrullinated minus native peptide, 492 nm) [1, 3]: 0.74
- delta OD (citrullinated minus native peptide, 492 nm) [1, 4]: 0.38
- delta OD (citrullinated minus native peptide, 492 nm) [1, 5]: 0.33
- delta OD (citrullinated minus native peptide, 492 nm) [1, 6]: 0.15
- delta OD (citrullinated minus native peptide, 492 nm) [1, 7]: 0.05
- delta OD (citrullinated minus native peptide, 492 nm) [1, 8]: 0.16
- Number of positive sera [2]: 2/10
- delta OD ([2]; serum 97.0530, dilution 1/50): 0.44
- delta OD ([2]; serum 97.0796, dilution 1/500): 1.18

Substance: β420-434Cit421: citrullinated synthetic peptide, fibrin β-chain residues 420-434 (P[Cit]KQCSKEDGGGWWY)
- delta OD (citrullinated minus native peptide, 492 nm) [1, 3]: 0.48
- delta OD (citrullinated minus native peptide, 492 nm) [1, 4]: 0.36
- delta OD (citrullinated minus native peptide, 492 nm) [1, 5]: 0.44
- delta OD (citrullinated minus native peptide, 492 nm) [1, 6]: 0.00
- delta OD (citrullinated minus native peptide, 492 nm) [1, 7]: 0.00
- delta OD (citrullinated minus native peptide, 492 nm) [1, 8]: 0.00

Substance: α246-260Cit258: citrullinated synthetic peptide, fibrin α-chain residues 246-260 (PEWKALTDMPQM[Cit]ME)
- delta OD (citrullinated minus native peptide, 492 nm) [1, 3]: 0.00
- delta OD (citrullinated minus native peptide, 492 nm) [1, 4]: 0.04
- delta OD (citrullinated minus native peptide, 492 nm) [1, 5]: 0.00
- delta OD (citrullinated minus native peptide, 492 nm) [1, 6]: 0.25
- delta OD (citrullinated minus native peptide, 492 nm) [1, 7]: 0.27
- delta OD (citrullinated minus native peptide, 492 nm) [1, 8]: 0.33
